Measurements from patent US9873883B2, “Glyphosate resistant plants and associated methods” (Dow AgroSciences LLC, priority 2012, dated 2018).

What was measured:
[1] = biological target: T1, Brassica napus (canola) EPSP synthase DGT-3 (GENBANK P17688) variant DGT-3 v6 (G→A) (Brassica napus, UniProt P17688, G173A); test: In vitro kinetic assay (inorganic phosphate production, malachite green); assay type: biochemical; conditions: for IC50: IC50 (glyphosate)
T1 construct: made in house; host or cells: E. coli Rosetta2 (DE3)
T1 sequence (P17688 73-516 G173A): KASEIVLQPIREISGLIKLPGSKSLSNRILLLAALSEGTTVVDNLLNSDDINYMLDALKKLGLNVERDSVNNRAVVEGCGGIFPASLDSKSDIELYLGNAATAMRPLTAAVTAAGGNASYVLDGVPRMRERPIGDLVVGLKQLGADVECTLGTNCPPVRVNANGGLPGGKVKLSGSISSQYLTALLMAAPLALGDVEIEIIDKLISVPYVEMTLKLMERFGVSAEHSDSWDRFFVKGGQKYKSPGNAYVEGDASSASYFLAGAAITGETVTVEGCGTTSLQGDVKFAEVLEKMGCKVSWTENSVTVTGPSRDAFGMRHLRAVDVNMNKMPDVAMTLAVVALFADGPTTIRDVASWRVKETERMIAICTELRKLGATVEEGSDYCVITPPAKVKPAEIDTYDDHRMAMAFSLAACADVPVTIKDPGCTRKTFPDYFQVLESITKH
Excerpt: (§1) The following Class I enzymes: DGT-1 from Glycine max, DGT-3 from Brassica napus (GENBANK ACC NO: P17688), and DGT-7 from Triticum aestivum (GENBANK ACC NO: EU977181) were used as a comparison. The Class I EPSP synthase enzymes and mutant variants thereof were synthesized and evaluated. A mutation introduced into the plant EPSP synthase enzymes consisted of the Glycine to Alanine mutation made within the EPSP synthase enzyme at a similar location as that of the G96A mutation from the E. coli version of the enzyme. In addition, Threonine to Isoleucine and Proline to Serine mutations were introduced within these Class I EPSP synthase enzymes at analogous positions as that of amino acid 97 (T to I) and amino acid 101 (P to S) in the EPSP synthase of E. coli as described in Funke et al., (2009).
(§2) The location of the amino acid residue which was mutated from glycine to alanine is indicated by the first asterisk. The location of the amino acid residue which was mutated from threonine to isoleucine is indicated by the second asterisk. The location of the third amino acid residue which was mutated from proline to serine is indicated by the third asterisk. These mutations were introduced into different versions of DGT-1, DGT-3, and DGT-7. The different versions of the genes which contain the mutations are described in more detail below.
(§3) Additional constructs containing the dgt-1, dgt-3 and dgt-7 were synthesized. These constructs were used for in vitro testing of the dgt-1 v5, dgt-1 v6, dgt-1 v7, dgt-1 v8, dgt-3 v6, dgt-3 v7, dgt-3 v8, dgt-7 v5, dgt-7 v6, dgt-7 v7, and dgt-7 v8 gene sequences were outsourced to GeneArt for synthesis and cloning. The synthesized genes were cloned into the pET28 expression vector. The resulting constructions were labeled as pDAB102028 containing dgt-1 v5, pDAB102029 containing dgt-1 v6, pDAB102032 containing dgt-1 v7, pDAB102034 containing dgt-1 v8, pDAB100429 containing dgt-3 v6, pDAB100442 containing dgt-3 v7, pDAB100430 containing dgt-3 v8, pDAB102036 containing dgt-7 v5, pDAB102038 containing dgt-7 v6, pDAB102040 containing dgt-7 v7, and pDAB102042 containing dgt-7 v8.
(§4) Recombinant DGT proteins were overexpressed in Rosetta2™ (DE3) cells (Novagen, Madison, Wis.) from the constructs described above. A single colony was used to inoculate 50 mL starter cultures of LB containing chloramphenicol (25 μg/mL) and kanamycin (50 μg/mL) which were cultivated overnight at 37° C. The overnight cultures were used to inoculate 1 L of LB containing chloramphenicol (25 μg/mL) and kanamycin (50 μg/mL). The cultures were grown at 37° C. to an O.D.600=0.6 then placed in an ice water bath for 10 minutes. Expression of the target proteins was achieved by addition of IPTG to a final concentration of 500 μM. Induction was allowed to proceed overnight at 20° C. followed by harvesting via centrifugation at 8,000 rpm for 20 minutes. The cell pellets were stored at −80° C. until required for purification. All purification steps were carried out at 4° C.
(§5) Cell pellets from 1 L cultures were resuspended in 20-30 mL Buffer A (50 mM HEPES pH 7.5, 150 mM KCl, 2 mM DTT, 1 mM EDTA, 20 mM imidazole, and 5% glycerol). COMPLETE™ protease inhibitor cocktail (1 tablet/50 mL, Roche, Indianapolis, Ind.) and lysozyme (1 mg/mL, Sigma-Aldrich, St. Louis, Mo.) were then added and the suspension was stirred for 20 minutes. Cell lysis was performed using a Branson Sonifier 250 (3×60 second bursts) followed by removal of the cell debris by centrifugation at 16,000 rpm for 45 minutes. DGT enzymes were purified to homogeneity in one step via immobilized metal affinity chromatography (IMAC) using a 5 mL HisTrap FF crude column. The column was equilibrated in Buffer A and the sample was loaded in the same buffer. The column was then washed with 10 column volumes of Buffer A followed by elution in a 0-100% Buffer B (50 mM HEPES pH 7.5, 200 mM KCl, 2 mM DTT, 1 mM EDTA, 500 mM imidazole, and 5% glycerol) linear gradient over 25 column volumes. […]

[2] = biological target: T2, Triticum aestivum (wheat) EPSP synthase DGT-7 variant DGT-7 v6 (G→A) (Triticum aestivum, UniProt B5M6A1, G167A); test: as above; assay type: biochemical; conditions: for IC50: IC50 (glyphosate)
T2 sequence (B5M6A1 with tags, fused parts or gaps G167A): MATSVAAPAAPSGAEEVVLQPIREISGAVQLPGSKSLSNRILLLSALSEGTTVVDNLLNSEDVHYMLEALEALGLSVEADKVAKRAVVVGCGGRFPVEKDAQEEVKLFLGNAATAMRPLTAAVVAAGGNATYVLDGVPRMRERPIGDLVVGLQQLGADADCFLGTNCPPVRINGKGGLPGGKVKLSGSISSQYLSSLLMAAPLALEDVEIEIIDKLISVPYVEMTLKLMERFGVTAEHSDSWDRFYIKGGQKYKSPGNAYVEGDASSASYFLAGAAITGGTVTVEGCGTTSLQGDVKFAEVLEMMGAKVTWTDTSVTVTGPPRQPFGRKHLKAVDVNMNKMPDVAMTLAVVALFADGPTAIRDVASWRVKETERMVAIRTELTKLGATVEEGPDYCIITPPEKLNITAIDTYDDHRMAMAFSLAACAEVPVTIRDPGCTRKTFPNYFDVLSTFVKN
Excerpt: as §1, §2, §3, §4, §5

Structure (SMILES): O=C(O)CNCP(=O)(O)O [glyphosate, N-(phosphonomethyl)glycine]
- IC50 ([1]; at 60 μM PEP): 8.7 mM
- IC50 ([1]; at 1 mM PEP): 15.8 mM
- IC50 ([2]; at 60 μM PEP): 15.1 mM
- IC50 ([2]; at 1 mM PEP): 8.1 mM

Structure (SMILES): C=C(OP(=O)(O)O)C(=O)O [PEP, phosphoenolpyruvate]
- increase of Km for PEP ([1]; G to A mutation vs un-mutated): ~8 fold
- increase of Km for PEP ([2]; G to A mutation vs un-mutated): ~8 fold
